Columns and labels:
[1] = tested on: OVCAR3 ovarian cancer cells (p53 R248 missense mutation); test: Cell viability after 72 hours, OVCAR3; assay type: cell-based, Human
Procedure: We examined the effect of Ceramide-RUB nanomicelles on p53 restoration in cancer cell models. Human OVCAR3 ovarian cancer cells carry a p53 R248 missense mutation, and are resistant to many anticancer drugs. […] FIG. 3 depicts cell viability (as a percentage of control) after treatment for 72 hours with varying concentrations of C6-Ceramide. FIG. 4 depicts cell viability (as a percentage of control) after treatment for 72 hours with varying concentrations of C6-Ceramide-Rubusoside. FIG. 5 depicts cell viability (as a percentage of control) after treatment for 72 hours with varying concentrations of Rubusoside.

[2] = tested on: A2780 ovarian cancer cells (p53 wild-type); test: Cell viability after 72 hours, A2780; assay type: cell-based
[3] = tested on: p53, Bax and p21 in the small intestine; test: p53 restoration in heterozygous p53R172H/+ transgenic mice (small intestine); assay type: in vivo; settings: 1 mg/kg, i.p., every 3 days for 6 days; vs. saline
Description: We examined the effects of Cer on restoring wt p53 expression in p53 missense transgenic mice. The experimental animals were heterozygous 129S4-Trp53^tm2.1Tyj transgenic mice, which carry the mutation p53^R172H/+, and have a genetic predisposition to cancer. (Doyle et al., 2010; Olive et al., 2004; Yu et al., 2012) These mice were generously provided by the NCI Mouse Repository (Rockville, Md.). We analyzed the genotypes of offspring by PCR analysis of DNA from blood collected from the tail vein. Heterozygous (HTZ) p53^R172H/+ mice were treated with C6-Cer or C6-Cer-RUB (1 mg/kg, i.p., every 3 days for 6 days).

[4] = tested on: protein phosphatase 1 (PP1); test: PP1 activity in NCI/ADR-RES cells; assay type: cell-based, human
Procedure: Cer can modulate gene expression, not only by activating transcription, but also by determining protein isoform. […] We assessed the roles of protein phosphatase 1 (PP1) and serine/arginine-rich splicing-factor 1 SRSF1 in Cer-induced wt p53 restoration via PP1 and SRSF1 in NCI/ADR-RES human ovarian cancer cells. […] Cells were pretreated with CalA (5 nM) for 4 hr, and then with either MBO-asGCS (MBO-as, 100 nM) or C6-Cer (2.5 μM) for 72 hr. FIG. 2 depicts PP1 activity in NCI/ADR-RES cells with various treatments. […] These increases were correlated with increases in wt p53 mRNA (exon 5) and pp53 (as assessed by RT-PCR amplification, data not shown).

[5] = tested on: wt p53 (phosphorylated-Ser15); settings: cited from earlier work
[6] = tested on: HTZ SW48/TP53+/− and parental SW48 (wt p53) cells; test: Sensitivity of SW48 cells to Cers; assay type: cell-based, human; settings: both cell lines, data not shown
[7] = Preliminary oral toxicity study in normal mice; assay type: in vivo; settings: up to 4 g daily per kg body mass, orally, two weeks
Procedure: (§1) Rubusoside (RUB) is a steviol glycoside. Steviol glycosides, extracted from the leaves of various plants, are often used as natural food sweeteners. […] Rubusoside is generally recognized as safe (GRAS) as a food additive for the general public according to the World Health Organization (WHO) (2005). A WHO expert panel has set 760 mg/kg/day RUB as the no-observed-effect level (NOEL) (2005). Thus there is ample tolerance for avoiding toxicity when rubusoside is employed in the present invention.

[8] = WHO intake limits (ADI, NOEL); settings: converted from the steviol ADI
Procedure: as §1

[9] = set by WHO expert panel (2005); cited from earlier work

With CCCCCCCCCCCCC/C=C/[C@@H](O)[C@H](CO)NC(=O)CCCCC [C6-Cer, C6-Ceramide] the IC50 ([1]; OVCAR3 cells, 72 hours) was 12.5 µM, the “resistance of OVCAR3 relative to A2780 cells” value ([1]; ratio of IC50 values) was 12 times and the IC50 [2] was 0.9 µM. For the same molecule, the “protein level of Bax in the small intestine” value [3] was “significantly increased”, the “protein level of p53 in the small intestine” value [3] was “significantly increased” and the PP1 activity ([4]; MBO-asGCS 100 nM or C6-Cer 2.5 μM, 72 hr) was “significantly increased”. For the same molecule, the “restoration of p53 activity” value ([5]; exogenous, Liu et al., 2011) was “restored p53 activity”.

For CCCC[C@@H](C)[C@@H](OC(=O)C[C@@H](CC(=O)O)C(=O)O)[C@H](C[C@@H](C)C[C@H](O)CCCC[C@@H](O)C[C@H](O)[C@H](C)N)OC(=O)C[C@@H](CC(=O)O)C(=O)O [Fumonisin B1], the “effect on p53 restoration by MBO-asGCS” value ([5]; inhibitor of Cer synthase) is given as “inhibited p53 restoration”.

In the case of CCCCCCCCCCCCC/C=C/[C@@H](O)[C@H](CO)NC(=O)CCCCCCCCCCCCCCCCC [C18-Cer], the “relative sensitivity of cells to Cers” value [6] is reported as “more sensitive to C18-Cer than C6-Cer”.

In the case of C=C1C[C@@]23CC[C@H]4[C@@](C)(CCC[C@@]4(C)C(=O)O[C@@H]4O[C@H](CO)[C@@H](O)[C@H](O)[C@H]4O)[C@@H]2CC[C@]1(O[C@@H]1O[C@H](CO)[C@@H](O)[C@H](O)[C@H]1O)C3 [Rubusoside, rubusoside], the cytotoxicity ([1]; OVCAR-3 cells, any concentration tested up to 15 μM, 72 hours) is reported as “no cytotoxicity”, the cytotoxicity ([2]; any concentration tested up to 15 μM) is reported as “no cytotoxicity” and the “clinical signs of toxicity” value [7] is reported as “did not cause any clinical signs of toxicity”. For the same molecule, the “Accepted Daily Intake (ADI), roughly comparable amount” value [8] was 8 to 12 mg/kg/day and the “no-observed-effect level (NOEL)” value [9] was 760 mg/kg/day.

For COC[C@@H]([C@H](O)[C@H](O)C(=O)NCC[C@H](C)c1nc(/C=C/C[C@@H]2O[C@]3(C[C@@H](O)[C@@H]2C)O[C@H]([C@H](C[C@H](O)[C@H](C)[C@H](O)[C@H](C)/C=C(C)/C(C)=C/C=C/C(C)=C\C#N)OC)[C@H](OP(=O)(O)O)C3(C)C)co1)N(C)C [calyculin A], the “effect on PP1 activation by MBO-asGCS and C6-Cer” value [4] was “abolished these effects”.

Reference: patent US20170216329A1, “Ceramide-Rubusoside Nanomicelles and Their Use in Cancer Therapy” (Board of Supervisors of Louisiana State University and …, priority 2014, published 2017)
